Experimental data published in patent US9593305B2, “Differentiation of pluripotent stem cells” (Janssen Biotech, Inc., priority 2008, dated 2017).

Columns and labels:
[1] = test system: H1 human embryonic stem cells; assay: Definitive endoderm formation with TGF superfamily members, SOX17 and cell number (Example 14); assay type: cell-based; settings: growth factor with 20 ng/ml Wnt3a, three days
Experimental: Clusters were centrifuged at low speed to collect a cell pellet and remove residual dispase. […] All human embryonic stem cell lines were maintained at passage numbers less than 50 and routinely evaluated for normal karyotype and absence of mycoplasma.
Cells were washed again three times with PBS and blocked with 4% chicken serum (Invitrogen; Cat #16110082) in PBS for 30 minutes at room temperature. […] Plates were washed once with PBS and left in 100 μl/well PBS for imaging.

[2] = test system: H1 human embryonic stem cells; assay: Secondary assay: compound combined with individual growth factors or small molecules, no activin A (Example 5, Table 4); assay type: cell-based;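 as to Cell Number, Average Total Cell Number: Four-day assay with feeding on alternate days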;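 as to Sox17 Expression, Average Total Intensity: Four-day assay with feeding on alternate days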
[3] = no AA (with Wnt3a), EGF + FGF4 + PDGF-A + Muscimol
[4] = no AA (with Wnt3a), EGF + FGF4 + PDGF-A + VEGF
[5] = no AA (with Wnt3a), EGF + FGF4 + PDGF-AB
[6] = no AA (with Wnt3a), EGF + FGF4 + PDGF-AB + Muscimol
[7] = no AA (with Wnt3a), EGF + PDGF-A + VEGF
[8] = no AA (with Wnt3a), FGF4 + PDGF-A + VEGF
[9] = no AA (with Wnt3a), bicuculline

Compound: GDF-8: growth factor GDF-8, also known as myostatin, member of the TGF-β family
- SOX17 expression in combination with Wnt3a [1]: significant induction of SOX17 expression

Compound: O=C1NCCCc2cncc(c2)-c2ncnc(n2)Nc2cccc(c2)CN2CCCC1C2 (stereo not shown) [Compound 17, 3,5,7,14,20,26,31-Heptaazapentacyclo[22.3.1.1-2,6˜1˜8,12˜1˜14,18˜]hentriaconta-1(28), 2(31), 3,5,8(30), 9,11,24,26-nonaen-19-one]
- Cell Number, % of positive control ([2]; no AA (with Wnt3a), EGF): 73.43%
- Cell Number, Average Total Cell Number ([2]; no AA (with Wnt3a), EGF): 6942
- Sox17 Expression, % of positive control ([2]; no AA (with Wnt3a), EGF): 0.74%
- Sox17 Expression, Average Total Intensity ([2]; no AA (with Wnt3a), EGF): 1.27E+06
- Cell Number, % of positive control ([2]; no AA (with Wnt3a), EGF + FGF4): 60.69%
- Cell Number, Average Total Cell Number ([2]; no AA (with Wnt3a), EGF + FGF4): 5738
- Sox17 Expression, % of positive control ([2]; no AA (with Wnt3a), EGF + FGF4): 1.83%
- Sox17 Expression, Average Total Intensity ([2]; no AA (with Wnt3a), EGF + FGF4): 3.14E+06
- Cell Number, % of positive control [2, 3]: 144.37%
- Cell Number, Average Total Cell Number [2, 3]: 13649
- Sox17 Expression, % of positive control [2, 3]: 8.43%
- Sox17 Expression, Average Total Intensity [2, 3]: 1.45E+07
- Cell Number, % of positive control [2, 4]: 110.85%
- Cell Number, Average Total Cell Number [2, 4]: 10480
- Sox17 Expression, % of positive control [2, 4]: 5.23%
- Sox17 Expression, Average Total Intensity [2, 4]: 8.97E+06
- Cell Number, % of positive control [2, 5]: 47.10%
- Cell Number, Average Total Cell Number [2, 5]: 4453
- Sox17 Expression, % of positive control [2, 5]: 0.54%
- Sox17 Expression, Average Total Intensity [2, 5]: 9.30E+05
- Cell Number, % of positive control [2, 6]: 109.91%
- Cell Number, Average Total Cell Number [2, 6]: 10391
- Sox17 Expression, % of positive control [2, 6]: 5.20%
- Sox17 Expression, Average Total Intensity [2, 6]: 8.92E+06
- Cell Number, % of positive control [2, 7]: 60.59%
- Cell Number, Average Total Cell Number [2, 7]: 5728
- Sox17 Expression, % of positive control [2, 7]: 1.24%
- Sox17 Expression, Average Total Intensity [2, 7]: 2.14E+06
- Cell Number, % of positive control [2, 8]: 139.59%
- Cell Number, Average Total Cell Number [2, 8]: 13198
- Sox17 Expression, % of positive control [2, 8]: 7.54%
- Sox17 Expression, Average Total Intensity [2, 8]: 1.29E+07

Compound: Activin A: recombinant human activin A (PeproTech), TGF-beta family member
- SOX17 expression in combination with Wnt3a [1]: robust expression of SOX17

Compound: CCN1CC(=O)NCCCc2cncc(c2)-c2ncnc(n2)Nc2cc(Cl)cc(c2)C1 [Compound 35, 10-Chloro-14-ethyl-3,5,7,14,17,23,27-heptaazatetracyclo[19.3.1.1˜2,6˜0.1˜8,12]Theptacosa-1(25), 2(27), 3,5,8(26), 9,11,21,23-nonaen-16-one]
- Cell Number, % of positive control ([2]; no AA (with Wnt3a), BMP1): 210.81%
- Cell Number, Average Total Cell Number ([2]; no AA (with Wnt3a), BMP1): 18849
- Sox17 Expression, % of positive control ([2]; no AA (with Wnt3a), BMP1): 6.59%
- Sox17 Expression, Average Total Intensity ([2]; no AA (with Wnt3a), BMP1): 1.29E+07
- Cell Number, % of positive control ([2]; no AA (with Wnt3a), BMP2): 181.38%
- Cell Number, Average Total Cell Number ([2]; no AA (with Wnt3a), BMP2): 16218
- Sox17 Expression, % of positive control ([2]; no AA (with Wnt3a), BMP2): 4.55%
- Sox17 Expression, Average Total Intensity ([2]; no AA (with Wnt3a), BMP2): 8.89E+06
- Cell Number, % of positive control ([2]; no AA (with Wnt3a), BMP2/7): 134.67%
- Cell Number, Average Total Cell Number ([2]; no AA (with Wnt3a), BMP2/7): 12042
- Sox17 Expression, % of positive control ([2]; no AA (with Wnt3a), BMP2/7): 3.62%
- Sox17 Expression, Average Total Intensity ([2]; no AA (with Wnt3a), BMP2/7): 7.08E+06
- Cell Number, % of positive control ([2]; no AA (with Wnt3a), BMP4): 187.31%
- Cell Number, Average Total Cell Number ([2]; no AA (with Wnt3a), BMP4): 16748
- Sox17 Expression, % of positive control ([2]; no AA (with Wnt3a), BMP4): 4.59%
- Sox17 Expression, Average Total Intensity ([2]; no AA (with Wnt3a), BMP4): 8.97E+06
- Cell Number, % of positive control ([2]; no AA (with Wnt3a), BMP7): 224.91%
- Cell Number, Average Total Cell Number ([2]; no AA (with Wnt3a), BMP7): 20111
- Sox17 Expression, % of positive control ([2]; no AA (with Wnt3a), BMP7): 4.12%
- Sox17 Expression, Average Total Intensity ([2]; no AA (with Wnt3a), BMP7): 8.05E+06
- Cell Number, % of positive control ([2]; no AA (with Wnt3a), Butyrate): 159.24%
- Cell Number, Average Total Cell Number ([2]; no AA (with Wnt3a), Butyrate): 14238
- Sox17 Expression, % of positive control ([2]; no AA (with Wnt3a), Butyrate): −0.94%
- Sox17 Expression, Average Total Intensity ([2]; no AA (with Wnt3a), Butyrate): −1.85E+06
- Cell Number, % of positive control ([2]; no AA (with Wnt3a), EGF): 216.23%
- Cell Number, Average Total Cell Number ([2]; no AA (with Wnt3a), EGF): 19334
- Sox17 Expression, % of positive control ([2]; no AA (with Wnt3a), EGF): 33.86%
- Sox17 Expression, Average Total Intensity ([2]; no AA (with Wnt3a), EGF): 6.62E+07
- Cell Number, % of positive control ([2]; no AA (with Wnt3a), FGF4): 49.32%
- Cell Number, Average Total Cell Number ([2]; no AA (with Wnt3a), FGF4): 4410
- Sox17 Expression, % of positive control ([2]; no AA (with Wnt3a), FGF4): 17.04%
- Sox17 Expression, Average Total Intensity ([2]; no AA (with Wnt3a), FGF4): 3.33E+07
- Cell Number, % of positive control ([2]; no AA (with Wnt3a), LY294002): 205.49%
- Cell Number, Average Total Cell Number ([2]; no AA (with Wnt3a), LY294002): 18374
- Sox17 Expression, % of positive control ([2]; no AA (with Wnt3a), LY294002): 5.28%
- Sox17 Expression, Average Total Intensity ([2]; no AA (with Wnt3a), LY294002): 1.03E+07
- Cell Number, % of positive control ([2]; no AA (with Wnt3a), Muscimol): 211.00%
- Cell Number, Average Total Cell Number ([2]; no AA (with Wnt3a), Muscimol): 18867
- Sox17 Expression, % of positive control ([2]; no AA (with Wnt3a), Muscimol): 13.35%
- Sox17 Expression, Average Total Intensity ([2]; no AA (with Wnt3a), Muscimol): 2.61E+07
- Cell Number, % of positive control ([2]; no AA (with Wnt3a), PD98059): 211.11%
- Cell Number, Average Total Cell Number ([2]; no AA (with Wnt3a), PD98059): 18877
- Sox17 Expression, % of positive control ([2]; no AA (with Wnt3a), PD98059): 6.64%
- Sox17 Expression, Average Total Intensity ([2]; no AA (with Wnt3a), PD98059): 1.30E+07
- Cell Number, % of positive control ([2]; no AA (with Wnt3a), PDGF-A): 188.84%
- Cell Number, Average Total Cell Number ([2]; no AA (with Wnt3a), PDGF-A): 16885
- Sox17 Expression, % of positive control ([2]; no AA (with Wnt3a), PDGF-A): 22.94%
- Sox17 Expression, Average Total Intensity ([2]; no AA (with Wnt3a), PDGF-A): 4.48E+07
- Cell Number, % of positive control ([2]; no AA (with Wnt3a), PDGF-AB): 186.34%
- Cell Number, Average Total Cell Number ([2]; no AA (with Wnt3a), PDGF-AB): 16662
- Sox17 Expression, % of positive control ([2]; no AA (with Wnt3a), PDGF-AB): 25.33%
- Sox17 Expression, Average Total Intensity ([2]; no AA (with Wnt3a), PDGF-AB): 4.95E+07
- Cell Number, % of positive control ([2]; no AA (with Wnt3a), PDGF-B): 158.46%
- Cell Number, Average Total Cell Number ([2]; no AA (with Wnt3a), PDGF-B): 14168
- Sox17 Expression, % of positive control ([2]; no AA (with Wnt3a), PDGF-B): 7.76%
- Sox17 Expression, Average Total Intensity ([2]; no AA (with Wnt3a), PDGF-B): 1.52E+07
- Cell Number, % of positive control ([2]; no AA (with Wnt3a), PDGF-C): 186.12%
- Cell Number, Average Total Cell Number ([2]; no AA (with Wnt3a), PDGF-C): 16642
- Sox17 Expression, % of positive control ([2]; no AA (with Wnt3a), PDGF-C): 9.46%
- Sox17 Expression, Average Total Intensity ([2]; no AA (with Wnt3a), PDGF-C): 1.85E+07
- Cell Number, % of positive control ([2]; no AA (with Wnt3a), PDGF-D): 197.03%
- Cell Number, Average Total Cell Number ([2]; no AA (with Wnt3a), PDGF-D): 17618
- Sox17 Expression, % of positive control ([2]; no AA (with Wnt3a), PDGF-D): 9.41%
- Sox17 Expression, Average Total Intensity ([2]; no AA (with Wnt3a), PDGF-D): 1.84E+07
- Cell Number, % of positive control ([2]; no AA (with Wnt3a), U0124): 184.97%
- Cell Number, Average Total Cell Number ([2]; no AA (with Wnt3a), U0124): 16539
- Sox17 Expression, % of positive control ([2]; no AA (with Wnt3a), U0124): 3.86%
- Sox17 Expression, Average Total Intensity ([2]; no AA (with Wnt3a), U0124): 7.54E+06
- Cell Number, % of positive control ([2]; no AA (with Wnt3a), U0126): 223.24%
- Cell Number, Average Total Cell Number ([2]; no AA (with Wnt3a), U0126): 19961
- Sox17 Expression, % of positive control ([2]; no AA (with Wnt3a), U0126): −0.29%
- Sox17 Expression, Average Total Intensity ([2]; no AA (with Wnt3a), U0126): −5.75E+05
- Cell Number, % of positive control ([2]; no AA (with Wnt3a), VEGF): 204.25%
- Cell Number, Average Total Cell Number ([2]; no AA (with Wnt3a), VEGF): 18263
- Sox17 Expression, % of positive control ([2]; no AA (with Wnt3a), VEGF): 17.98%
- Sox17 Expression, Average Total Intensity ([2]; no AA (with Wnt3a), VEGF): 3.51E+07
- Cell Number, % of positive control [2, 9]: 215.98%
- Cell Number, Average Total Cell Number [2, 9]: 19312
- Sox17 Expression, % of positive control [2, 9]: 1.00%
- Sox17 Expression, Average Total Intensity [2, 9]: 1.95E+06
- Cell Number, % of positive control ([2]; no AA (with Wut3a), BMP6): 199.50%
- Cell Number, Average Total Cell Number ([2]; no AA (with Wut3a), BMP6): 17838
- Sox17 Expression, % of positive control ([2]; no AA (with Wut3a), BMP6): 3.75%
- Sox17 Expression, Average Total Intensity ([2]; no AA (with Wut3a), BMP6): 7.32E+06
